The nature of data set [1]: Autoradiography, complex solution versus ^166Ho(NO3)3.5H2O solution not containing chitosan, injected into the prostate gland. The class given is in vivo, rats. The following applies: for Radioactive concentration, Administration site / Radioactive concentration, End region of femur / Radioactive concentration, Liver / Radioactive concentration, Spine / Radioactive concentration, Spleen / Radioactive concentration, Kidney: 25 μl (about 100 μCi); for Radioactivity retained in the administration site, the prostate gland: 24 hrs after being administered. How it is done:
To investigate advantages of the ^166Ho-chitosan complex, autoradiography was carried out for a group administered with the complex solution and a control group administered with a ^166Ho(NO3)3.5H2O solution not containing chitosan. In the complex solution administration group, 25 μl of the complex solution was administered, which was equal to about 100 μCi. The control group was administered with a ^166Ho(NO3)3.5H2O solution not containing chitosan with the same dosage and radioactive concentration as in the complex solution administration group. This test was carried out according to the same method as in Experimental Example 1, and each test drug was administered to the prostate gland. After 0.5, 2, 6 and 24 hrs, rats were sacrificed and evaluated by autoradiography. The measured radioactive concentrations (% ID/g) in various organs after injection of the complex solution and the ^166Ho(NO3)3.5H2O solution are given in Table 2, below.

For data set [2], the system named is DU-145 carcinoma cell line (hormone-independent prostate carcinoma cell line). Put plainly: Antitumor effect in DU-145 subcutaneous tumor model, intratumoral injection. The following applies: for Tumor volume after injection / Tumor growth inhibition rate: non-radioactive complex group; for Tumor volume after injection: 0.2 ml intratumoral; for Tumor growth inhibition rate: last day of the test (2 wks), tumor volume vs control. The class given is in vivo, nude mice. How it is done: To investigate the effect of the complex on hormone-independent prostate cancer, a DU-145 carcinoma cell line (hormone-independent prostate carcinoma cell line), which is rarely produces prostate-specific antigen, was transplanted into nude mice and the antitumor effect of the complex was evaluated.
The DU-145 cells were cultured in 10% FBS (fetal bovine serum)-containing F-12K(Kaign's Modification of Ham's F-12 medium) in a 5% CO2 incubator at 37° C., and 2×10^5 cells/0.2 ml/head were subcutaneously transplanted into the lumbar portion of male 6-week nude mice. When the long axis of the tumor was about 1 cm long, the complex solution was intratumorally injected. The administration volume of the test drug was 0.2 ml. The mice were divided into four groups: a control group (no treatment); two administration groups administered with the complex solution at doses of 10 mCi and 20 mCi per 1 cm^3 tumor; and another administration group administered with a non-radioactive complex solution [Holmium-165 (^165Ho)-chitosan complex solution]. Two weeks after administration with the complex solution, the mice were histopathologically examined to evaluate the antitumor effect and toxicity to major organs of the complex.

Data set [3] is described as follows: Histopathological examination of organs of rats of the orthotopic model (hematoxylin and eosin). The format is in vivo, noble rats. The following applies: last day of the test. From the text: From all rats tested in Experimental Example 7, which were sacrificed on the last day of the test, the heart, lung, liver, kidney, spleen, testes, epididymis, seminal vesicle, bladder, rectum and tumor tissues were excised, embedded in paraffin according to general tissue processing, and sectioned into a thickness of 3 μm. The tissue sections were subjected to double staining with hematoxylin and eosin and histopathologically examined.

Data set [4] has as its system AIT carcinoma (androgen-independent carcinoma cell line). Description: Antitumor effect in AIT subcutaneous tumor model. The format is in vivo, noble rats. The conditions noted are these: non-radioactive complex group; for Tumor growth inhibition rate: four weeks, tumor weight vs control. How it is done:
To evaluate the effect of the complex on hormone-independent prostate cancer, an AIT carcinoma (androgen-independent carcinoma cell line) was transplanted into noble rats, and the antitumor effect of the complex was examined.
An androgen-independent, prostate carcinoma cell line, AIT, which is derived from noble rats, was cultured in 10% FBS-containing DMEM at 37° under 5% CO2. The cultured carcinoma cells were suspended in sterile physiological saline at a density of 4×10^6 cells/ml, and 2×10^6 cells were subcutaneously transplanted into the lateral abdomen of male 5-week noble rats. When the long axis of the tumor was about 1 cm long (in this test, 14 days after transplantation), the rats were grouped according to the tumor mass. The kit prepared in Example 2 was used as a test drug, and was administered at the same dose as in Experimental Example 5, that is, 0.2 ml. The rats were divided into four groups: a control group (no treatment); two administration groups administered with the complex solution at 10 mCi and 20 mCi per 1 cm^3 tumor; and another administration group administered with a non-radioactive complex solution (Holmium-165 (^165Ho)-chitosan complex solution). Four weeks after administration with the complex solution, tumors were excised from the rats, and tumor growth inhibition rates were measured by weighing the tumors.

Data set [5] deals with AIT prostate carcinoma cells. Description: Antitumor effect in orthotopic tumor model, AIT transplanted into the prostate gland. The class given is in vivo, noble rats. The following applies: non-radioactive complex group. How it is done: In addition to the subcutaneous tumor model tested in Experimental Example 6, the antitumor effect and side effects of the complex solution was examined in an orthotopic tumor model where AIT prostate carcinoma cells had been directly transplanted into the prostate gland. AIT cells were cultured in 10% FBS-containing DMEM at 37° under 5% CO2. The cultured carcinoma cells were suspended in sterile physiological saline at a density of 2×10^6 cells/0.05 ml. After noble rats were anesthetized with fentanyl and the abdomen was opened, 2×10^6 cells per rat were transplanted into the prostate gland of the rats. Seven days after carcinoma transplantation, the rats were randomly allocated. The kit prepared in Example 2 was used as a test drug, and 0.05 ml of the kit was administered. The rats were divided into four groups: a control group (no treatment); two administration groups administered with 0.5 mCi and 1.0 mCi of the complex solution; and another administration group administered with a non-radioactive complex solution (Holmium-165 (^165Ho)-chitosan complex solution). Two and four weeks after administration of the complex solution, the rats were sacrificed, and tumors were excised from the rats and weighed.

[6] abbreviates: listed as non-radioactive complex solution.

Marks after values point to notes of the source that are not given here.

These results are taken from patent US20060286032A1, “A radiosotope-chitosan complex for treatment of prostate cancer” (priority 2003, published 2006).

Turning to `O.O.O.O.O.O=[N+]([O-])[O-].O=[N+]([O-])[O-].O=[N+]([O-])[O-].[166Ho+3]` [^166Ho, ^166Ho(NO3)3.5H2O], the “Radioactive concentration, Administration site” value in data set [1] (30 min) was 4532 ± 513.4 % ID/g; in data set [1] (2 hrs), 4404 ± 1806.8 % ID/g; in data set [1] (6 hrs) it was 2197 ± 1334.3 % ID/g; in data set [1] (24 hrs), 1067 ± 941.8 % ID/g. The “Radioactive concentration, End region of femur” value was 0.02^b % ID/g in data set [1] (30 min), 0.11 ± 0.104 % ID/g in data set [1] (2 hrs), 0.32 ± 0.068 % ID/g in data set [1] (6 hrs) and 1.74 ± 0.424 % ID/g in data set [1] (24 hrs). Besides, the “Radioactive concentration, Liver” value turned out to be 0.02 ± 0.011 % ID/g in data set [1] (30 min), 0.04 ± 0.024 % ID/g in data set [1] (2 hrs), 0.12 ± 0.022 % ID/g in data set [1] (6 hrs) and 0.18 ± 0.150 % ID/g in data set [1] (24 hrs). Also, the “Radioactive concentration, Spine” value in data set [1] (30 min) is given as 0.01^b % ID/g; in data set [1] (2 hrs), 0.03 ± 0.030 % ID/g; in data set [1] (6 hrs) it was 0.07 ± 0.010 % ID/g; in data set [1] (24 hrs), 0.45 ± 0.123 % ID/g. The entries for the “Radioactive concentration, Spleen” value in data set [1] (2 hrs), in data set [1] (6 hrs) and in data set [1] (24 hrs) were 0.03 ± 0.009 % ID/g, 0.07 ± 0.006 % ID/g and 0.11 ± 0.073 % ID/g, respectively. The results for the “Radioactive concentration, Kidney” value in data set [1] (6 hrs) and in data set [1] (24 hrs) were 0.03 ± 0.008 % ID/g and 0.07 ± 0.025 % ID/g, respectively. In addition, the results for the “Radioactivity retained in the administration site, the prostate gland” value in data set [1] (listed as 166Ho(NO3)3.5H2O solution) and in data set [1] (listed as radioisotope solution not containing chitosan) were “about 30%” and 30%, respectively. Also, the “Radioactive concentration in liver, spleen, kidney and end region of the femur, fold higher than in the complex solution group” value in data set [1] (after 6 and 24 hrs) fell in the range of 2 to 4 fold. In addition, the “Radioactive concentration in the administration site, fold lower than in the complex solution group” value in data set [1] (after 6 hrs) is recorded as 2 fold; in data set [1] (after 24 hrs), 3 fold.

In the case of “Holmium-165 (^165Ho)-chitosan complex [Non-radioactive complex, reference compound]”, the “Change in tumor volume” value in data set [2] (last day of the test) was “greatly increased”. Moreover, the “Tumor volume after injection” value in data set [2] (1 wk) is on record as 1.24 ± 0.61 cm^3; in data set [2] (2 wks), 5.03 ± 1.51 cm^3. For the same molecule, the “Tumor growth inhibition rate” value in data set [2] is listed as 23.1%; in data set [2] (setting [6]), “about 20%”; in data set [4] it was 20.4%; in data set [4] (setting [6]) it was “about 20%”. Further, the “Histopathological changes in organs other than the tumor tissue (heart, lung, liver, kidney, spleen, testes, epididymis, seminal vesicle, bladder, rectum)” value in data set [3] is reported as “no abnormalities in adjacent organs were found”. The Tumor weight in data set [4] (four weeks after administration) came out at 18.1 ± 4.37 g; in data set [5] (2 wks after administration), 1.93 ± 0.29 g; in data set [5] (4 wks after administration), 32.62 ± 2.32 g.
